The compounds below were run against DYRK1A (Homo sapiens (Human), UniProt Q13627) (assay: DYRK1A Inhibition Assay). Conditions: Compounds of Formula (I); DYRK1A 1 nM, ATP 20 μM, Ser/Thr 18 peptide 2 μM, 90 minutes; read-out: DYRK1 IC50.
Format: biochemical
Description: DYRK1A—Invitrogen #PV4105
• Ser/Thr 18 peptide—Invitrogen #PR8227U • Phos-Ser/Thr 18 peptide—Invitrogen #PR8229U • Assay plate—PerkinElmer #6007279 • ATP—Sigma #A7699-5G • Development reagent A—Invitrogen #PR5194B • Development buffer—Invitrogen #PR4876B Compound preparation • 1. Test compounds were diluted to 1 mM in DMSO • 2. Stock was further diluted 3-fold using Echo platform • 3. 100 nL of DMSO into Columns 1 and 24 and 100 nL of compounds dilutions to Columns 2-23 in a plate.
• 1. Add 5 μL enzyme & substrate mixture to each well in Column 2-23 and A24-H24 wells of the 384-well assay plate; • 2. Add 5 μL 0% Phosphorylation control to A1-H1 and I24-P24 wells of the assay plate; • 3. Add 5 μL 100% Phosphorylation control to I1-P1 wells of the assay plate; • 4. Spin the assay plate (1000 rpm, 1 minute @23° C.); • 5. Incubate enzyme with compounds for 15 minutes at 23° C.; • 6. Add 5 μL ATP solution to each well of the assay plate; • 7. Spin the plate (1000 rpm, 1 minute @23° C.); • 8. Incubate the assay plate for 90 minutes at 23° C.; • 9. Add 10 μL Development reagent A to each well of the assay plate; • 10. Centrifuge the plate at 1000 rpm about 15 seconds and seal a film over assay plate. Incubate the assay plate for 30 minutes at 23° C. • 11. Read assay plates on Envision (see Tables A-D).
Final Compound Concentrations
• Assay buffer: 50 mM Hepes pH7.5, 10 mM MgCl2, 1 mM EDTA, 0.01% Brij-35 • DYRK1A: 1 nM • ATP: 20 μM • Ser/Thr 18 peptide: 2 μM • Reaction time: 90 minutes

**Q.** Which IC50 does the source give for `Cn1cc(-c2ccc3cnc4nc(C5CCOCC5)oc4c3c2)cn1` [Compound 82, 8-(1-methyl-1H-pyrazol-4-yl)-2-(tetrahydro-2H-pyran-4-yl)oxazolo[4,5-c]isoquinoline] here?
**A.** 100 to 1000 nM

**Q.** With `Cc1c(C2CCN(CCF)CC2)[nH]c2ncc3ccc(-c4cnn(C)c4)cc3c12` [Compound 54, 2-(1-(2-fluoroethyl)piperidin-4-yl)-1-methyl-8-(1-methyl-1H-pyrazol-4-yl)-3H-pyrrolo[2,3-c]isoquinoline] as the compound, how does the IC50 read?
**A.** ≤ 10 nM

**Q.** How did the IC50 turn out when `Cc1cc2c(ncc3ccc(-c4cnc(C#CC5CCOCC5)s4)cc32)[nH]1` [Compound 64] was run?
**A.** 10 to 100 nM

**Q.** How did the IC50 turn out when `O[C@H]1CCN(c2cncc(-c3ccc4cnc5[nH]cc(C6CCC6)c5c4c3)c2)C1` [Compound 66, (S)-1-(5-(1-cyclobutyl-3H-pyrrolo[2,3-c]isoquinolin-8-yl)pyridin-3-yl)pyrrolidin-3-ol] was run?
**A.** ≤ 10 nM

**Q.** For `Cn1ccc2c3cc(-c4cnc(C#CC5CCOCC5)s4)ccc3cnc21` [Compound 60], which IC50 is on record?
**A.** 10 to 100 nM

**Q.** With `O=C(O)[C@H]1C[C@@H](c2c[nH]c3ncc4cccnc4c32)C1` [Compound 36, (1s,3s)-3-(7H-pyrrolo[2,3-h][1,6]naphthyridin-9-yl)cyclobutane-1-carboxylic acid] as the compound, how does the IC50 read?
**A.** 100 to 1000 nM

**Q.** For `Cn1cc(-c2ccc3cnc4c(c3c2)CC(=O)N4)cn1` [Compound 85, 8-(1-methyl-1H-pyrazol-4-yl)-1,3-dihydro-2H-pyrrolo[2,3-c]isoquinolin-2-one], which IC50 is on record?
**A.** 10 to 100 nM

**Q.** `Cn1cc(-c2ccc3cnc4c(c3c2)CCO4)cn1` [Compound 74, 8-(1-methyl-1H-pyrazol-4-yl)-1,2-dihydrofuro[2,3-c]isoquinoline] was tested. Which IC50 did it give?
**A.** 10 to 100 nM

**Q.** `Cn1cc(-c2ccc3cnc4c(c3c2)c([C@H]2CC[C@H](C(=O)O)CC2)cn4C)cn1` [Compound 47, 4-(3-methyl-8-(1-methyl-1H-pyrazol-4-yl)-3H-pyrrolo[2,3-c]isoquinolin-1-yl)cyclohexane-1-carboxylic acid] was tested. Which IC50 did it give?
**A.** ≤ 10 nM

**Q.** Which IC50 does the source give for `Cc1c(C2CCNCC2)[nH]c2ncc3ccc(-c4cnn(C)c4)cc3c12` [Compound 41, 1-methyl-8-(1-methyl-1H-pyrazol-4-yl)-2-(piperidin-4-yl)-3H-pyrrolo[2,3-c]isoquinoline] here?
**A.** ≤ 10 nM

**Q.** For `c1ncc(-c2ccc3cnc4c(c3c2)CCO4)s1` [Compound 75, 8-(thiazol-5-yl)-1,2-dihydrofuro[2,3-c]isoquinoline], which IC50 is on record?
**A.** 10 to 100 nM

**Q.** `CN1CCC(c2nccc3c2cnc2[nH]cc(-c4ccncc4)c23)CC1` [Compound 44, 6-(1-methylpiperidin-4-yl)-1-(pyridin-4-yl)-3H-pyrrolo[2,3-c][2, 7]naphthyridine] was tested. Which IC50 did it give?
**A.** 100 to 1000 nM

**Q.** For `CC(C)CN1CCC(c2cc3c(ncc4ccc(-c5cn[nH]c5)cc43)[nH]2)CC1` [Compound 89, 2-(1-isobutylpiperidin-4-yl)-8-(1H-pyrazol-4-yl)-3H-pyrrolo[2,3-c]isoquinoline], which IC50 is on record?
**A.** 10 to 100 nM

**Q.** For `COC1CC(n2c(=O)[nH]c3ncc4ccc(-c5cnn(C)c5)cc4c32)C1` (centres unmarked) [Compound 22, 1-(3-methoxycyclobutyl)-8-(1-methyl-1H-pyrazol-4-yl)-1,3-dihydro-2H-imidazo[4,5-c]isoquinolin-2-one], which IC50 is on record?
**A.** 100 to 1000 nM

**Q.** For `Cn1cc(-c2ccc3cnc4[nH]c(C5CCNCC5)cc4c3c2)cn1` [Compound 39, 8-(1-methyl-1H-pyrazol-4-yl)-2-(piperidin-4-yl)-3H-pyrrolo[2,3-c]isoquinoline], which IC50 is on record?
**A.** ≤ 10 nM

**Q.** Which IC50 does the source give for `CN1CCC(C#Cc2ncc(-c3ccc4cnc5c(ccn5C)c4c3)s2)CC1` [Compound 62, 5-(3-methyl-3H-pyrrolo[2,3-c]isoquinolin-8-yl)-2-((1-methylpiperidin-4-yl)ethynyl)thiazole] here?
**A.** 10 to 100 nM

**Q.** How did the IC50 turn out when `Fc1ccc(-c2c[nH]c3ncc4ccc(-c5cn[nH]c5)cc4c23)cc1` [Compound 3, 1-(4-fluorophenyl)-8-(1H-pyrazol-4-yl)-3H-pyrrolo[2,3-c]isoquinoline] was run?
**A.** 10 to 100 nM

**Q.** For `O=C(O)C1CC(c2c[nH]c3ncc4ccncc4c23)C1` (centres unmarked) [Compound 35, 3-(7H-pyrrolo[2,3-c][2,6]naphthyridin-9-yl)cyclobutane-1-carboxylic acid], which IC50 is on record?
**A.** 100 to 1000 nM

**Q.** Which IC50 does the source give for `O=C(O)[C@H]1C[C@@H](c2c[nH]c3ncc4ccccc4c32)C1` [Compound 32, (1s,3s)-3-(3H-pyrrolo[2,3-c]isoquinolin-1-yl)cyclobutane-1-carboxylic acid] here?
**A.** 100 to 1000 nM

**Q.** For `O=C(O)c1ccc2c(cnc3c2cnn3CC2CCOCC2)c1` [Compound 71], which IC50 is on record?
**A.** 100 to 1000 nM

**Q.** Which IC50 does the source give for `Cn1cc(-c2ccc3cnc4c(c3c2)c([C@H]2CC[C@H](N(C)C)CC2)cn4C)cn1` [Compound 50, (1r,4r)-N,N-dimethyl-4-(3-methyl-8-(1-methyl-1H-pyrazol-4-yl)-3H-pyrrolo[2,3-c]isoquinolin-1-yl)cyclohexan-1-amine] here?
**A.** 10 to 100 nM

**Q.** `Cc1nc2ncc3ccc(-c4cnn(C)c4)cc3c2s1` [Compound 80] was tested. Which IC50 did it give?
**A.** 100 to 1000 nM

**Q.** With `O=c1[nH]c2ncc(-c3ccc4cnsc4c3)cc2n1C1CCC1` [Compound 31, 6-(benzo[d]isothiazol-6-yl)-1-cyclobutyl-1,3-dihydro-2H-imidazo[4,5-b]pyridin-2-one] as the compound, how does the IC50 read?
**A.** 100 to 1000 nM

**Q.** `O[C@@H]1CCN(c2cncc(-c3ccc4cnc5[nH]c(C6CCC6)cc5c4c3)c2)C1` [Compound 70] was tested. Which IC50 did it give?
**A.** 10 to 100 nM

**Q.** Which IC50 does the source give for `Cn1cc(-c2ccc3cnc4occc4c3c2)cn1` [Compound 76, 8-(1-methyl-1H-pyrazol-4-yl)furo[2,3-c]isoquinoline] here?
**A.** 10 to 100 nM

**Q.** Which IC50 does the source give for `CN1CCC(c2cc3c(ncc4ccc(-c5cnn(C)c5)cc43)[nH]2)CC1` [Compound 40, 8-(1-methyl-1H-pyrazol-4-yl)-2-(1-methylpiperidin-4-yl)-3H-pyrrolo[2,3-c]isoquinoline] here?
**A.** ≤ 10 nM

**Q.** `Cn1cc(-c2ccc3cnc4c(c3c2)c([C@H]2CC[C@@H](N(C)C)CC2)cn4C)cn1` [Compound 49, (1s,4s)-N,N-dimethyl-4-(3-methyl-8-(1-methyl-1H-pyrazol-4-yl)-3H-pyrrolo[2,3-c]isoquinolin-1-yl)cyclohexan-1-amine] was tested. Which IC50 did it give?
**A.** 10 to 100 nM

**Q.** With `CN1CCC(c2c(C(F)(F)F)[nH]c3ncc4cc(-c5cnco5)ccc4c23)CC1` [Compound 57, 5-(1-(1-methylpiperidin-4-yl)-2-(trifluoromethyl)-3H-pyrrolo[2,3-c]isoquinolin-7-yl)oxazole] as the compound, how does the IC50 read?
**A.** > 1000 nM

**Q.** `c1ncc(-c2ccc3cnc4sc(C5CCN(CC6CC6)CC5)nc4c3c2)s1` [Compound 86, 2-(1-(cyclopropylmethyl)piperidin-4-yl)-8-(thiazol-5-yl)thiazolo[5,4-c]isoquinoline] was tested. Which IC50 did it give?
**A.** 10 to 100 nM

**Q.** With `CC(C)CN1CCC(c2cc3c(ncc4ccc(-c5cncs5)cc43)[nH]2)CC1` [Compound 88, 5-(2-(1-isobutylpiperidin-4-yl)-3H-pyrrolo[2,3-c]isoquinolin-8-yl)thiazole] as the compound, how does the IC50 read?
**A.** ≤ 10 nM

**Q.** `Cn1cc(-c2ccc3cnc4ncn(C5CCC5)c4c3c2)cn1` [Compound 58, 1-cyclobutyl-8-(1-methyl-1H-pyrazol-4-yl)-1H-imidazo[4,5-c]isoquinoline] was tested. Which IC50 did it give?
**A.** 10 to 100 nM

**Q.** Which IC50 does the source give for `O[C@@H]1CCN(c2cncc(-c3ccc4cnc5[nH]cc(C6CCC6)c5c4c3)c2)C1` [Compound 67, (R)-1-(5-(1-cyclobutyl-3H-pyrrolo[2,3-c]isoquinolin-8-yl)pyridin-3-yl)pyrrolidin-3-ol] here?
**A.** ≤ 10 nM

**Q.** For `Cn1cc(-c2ccc3cnc4c(c3c2)c([C@H]2CC[C@@H](C(=O)O)CC2)cn4C)cn1` [Compound 46, 4-(3-methyl-8-(1-methyl-1H-pyrazol-4-yl)-3H-pyrrolo[2,3-c]isoquinolin-1-yl)cyclohexane-1-carboxylic acid], which IC50 is on record?
**A.** 10 to 100 nM

**Q.** For `Cc1c(-c2cccnc2)[nH]c2ncc3cnccc3c12` [Compound 53], which IC50 is on record?
**A.** 100 to 1000 nM

**Q.** Which IC50 does the source give for `CNC(=O)C1CCC(c2c[nH]c3ncc4ccc(-c5cnn(C)c5)cc4c23)CC1` (centres unmarked) [Compound 27] here?
**A.** ≤ 10 nM

**Q.** Which IC50 does the source give for `CC(C)CN1CCC(c2cc3c(ncc4ccc(-c5cncn5C)cc43)[nH]2)CC1` [Compound 87] here?
**A.** 10 to 100 nM

Same assay, conditions: Compounds of Formula (II); DYRK1A 1 nM, ATP 20 μM, Ser/Thr 18 peptide 2 μM, 90 minutes; read-out: DYRK1 IC50

**Q.** How did the IC50 turn out when `CN1CCC(c2nc3c(-c4cn(C)c5cnccc45)ccnc3[nH]2)CC1` [Compound 5] was run?
**A.** 10 to 100 nM

Same assay, conditions: Compounds of Formula (III); DYRK1A 1 nM, ATP 20 μM, Ser/Thr 18 peptide 2 μM, 90 minutes; read-out: DYRK1 IC50

**Q.** `CN1CCC(C(=O)Nc2ncc(-c3ccc4ncoc4c3)s2)CC1` [Compound 1] was tested. Which IC50 did it give?
**A.** 50 to 200 nM

**Q.** For `CN1CCC(C#Cc2ncc(-c3ccc4cnn(C)c4c3)s2)CC1` [Compound 8], which IC50 is on record?
**A.** 50 to 200 nM

**Q.** How did the IC50 turn out when `CN1CCC(C(=O)Nc2ncc(-c3ccc4sncc4c3)s2)CC1` [Compound 5] was run?
**A.** 200 to 1000 nM

Same assay, conditions: Compounds of Formula (IV); DYRK1A 1 nM, ATP 20 μM, Ser/Thr 18 peptide 2 μM, 90 minutes; read-out: DYRK1 IC50

**Q.** With `Cn1ncc2cc3[nH]c(=O)n(-c4cccc(O)c4)c3cc21` [Compound 5] as the compound, how does the IC50 read?
**A.** 500 to 1000 nM

**Q.** `COc1cc(-c2ccc3c4c([nH]c(=O)c3c2)CN(C)CC4)ccc1F` [Compound 12] was tested. Which IC50 did it give?
**A.** 1000 to 5000 nM

**Q.** How did the IC50 turn out when `CC(=O)N1CCc2c(cnc3[nH]cc(-c4ccncc4)c23)C1` [Compound 7] was run?
**A.** 500 to 1000 nM

**Q.** For `CN1CCc2c([nH]c(=O)c3cc(-c4ccnc5c4CCO5)ccc23)C1` [Compound 13], which IC50 is on record?
**A.** 1000 to 5000 nM
